How the values were obtained:
Type in all cases: ADME
[1] = The drug is tested on Bacteroides caccae strain: DSM19024 for biotransformation under anaerobic condition. The drug concentrations were measured over 6 timepoints collected between 0 and 12 hours of incubation by liquid-chromatography-coupled mass spectrometry (LC–MS); parameters: dose 5 uM, timepoint 0, 1.5, 3, 6, 9, 12 hours; conditions: 5 µM
[2] = The drug is tested on Bacteroides fragilis strain: DSM2151 for biotransformation under anaerobic condition. The drug concentrations were measured over 6 timepoints collected between 0 and 12 hours of incubation by liquid-chromatography-coupled mass spectrometry (LC–MS); parameters: dose 5 uM, timepoint 0, 1.5, 3, 6, 9, 12 hours; conditions: 5 µM
[3] = The drug is tested on Bacteroides stercoris strain: HM 1036 for biotransformation under anaerobic condition. The drug concentrations were measured over 6 timepoints collected between 0 and 12 hours of incubation by liquid-chromatography-coupled mass spectrometry (LC–MS); parameters: dose 5 uM, timepoint 0, 1.5, 3, 6, 9, 12 hours; conditions: 5 µM
[4] = The drug is tested on Bacteroides uniformis strain: DSM6597 for biotransformation under anaerobic condition. The drug concentrations were measured over 6 timepoints collected between 0 and 12 hours of incubation by liquid-chromatography-coupled mass spectrometry (LC–MS); parameters: dose 5 uM, timepoint 0, 1.5, 3, 6, 9, 12 hours; conditions: 5 µM
[5] = The drug is tested on Clostridium bolteae strain: DSM15670 for biotransformation under anaerobic condition. The drug concentrations were measured over 6 timepoints collected between 0 and 12 hours of incubation by liquid-chromatography-coupled mass spectrometry (LC–MS); parameters: dose 5 uM, timepoint 0, 1.5, 3, 6, 9, 12 hours; conditions: enterocloster bolteae, 5 µM
[6] = The drug is tested on Clostridium ramosum strain: DSM1402 for biotransformation under anaerobic condition. The drug concentrations were measured over 6 timepoints collected between 0 and 12 hours of incubation by liquid-chromatography-coupled mass spectrometry (LC–MS); parameters: dose 5 uM, timepoint 0, 1.5, 3, 6, 9, 12 hours; conditions: thomasclavelia ramosa, 5 µM
[7] = The drug is tested on Coprococcus comes strain: ATCC27758 for biotransformation under anaerobic condition. The drug concentrations were measured over 6 timepoints collected between 0 and 12 hours of incubation by liquid-chromatography-coupled mass spectrometry (LC–MS); parameters: dose 5 uM, timepoint 0, 1.5, 3, 6, 9, 12 hours; conditions: 5 µM
[8] = The drug is tested on Lactobacillus paracasei strain: ATCC27092 for biotransformation under anaerobic condition. The drug concentrations were measured over 6 timepoints collected between 0 and 12 hours of incubation by liquid-chromatography-coupled mass spectrometry (LC–MS); parameters: dose 5 uM, timepoint 0, 1.5, 3, 6, 9, 12 hours; conditions: lacticaseibacillus paracasei, 5 µM
[9] = The drug is tested on Lactobacillus ruminis strain: ATCC25644 for biotransformation under anaerobic condition. The drug concentrations were measured over 6 timepoints collected between 0 and 12 hours of incubation by liquid-chromatography-coupled mass spectrometry (LC–MS); parameters: dose 5 uM, timepoint 0, 1.5, 3, 6, 9, 12 hours; conditions: ligilactobacillus ruminis, 5 µM
[10] = The drug is tested on Ruminococcus gnavus strain: ATCC29149 for biotransformation under anaerobic condition. The drug concentrations were measured over 6 timepoints collected between 0 and 12 hours of incubation by liquid-chromatography-coupled mass spectrometry (LC–MS); parameters: dose 5 uM, timepoint 0, 1.5, 3, 6, 9, 12 hours; conditions: mediterraneibacter gnavus, 5 µM
[11] = The drug is tested on Streptococcus salivarius strain: DSM20560 for biotransformation under anaerobic condition. The drug concentrations were measured over 6 timepoints collected between 0 and 12 hours of incubation by liquid-chromatography-coupled mass spectrometry (LC–MS); parameters: dose 5 uM, timepoint 0, 1.5, 3, 6, 9, 12 hours; conditions: 5 µM
[12] = The drug is tested on Gemella haemolysans strain: DSM107751 for biotransformation under microaerobic condition. The drug concentrations were measured over 6 timepoints collected between 0 and 12 hours of incubation by liquid-chromatography-coupled mass spectrometry (LC–MS); parameters: dose 5 uM, timepoint 0, 1.5, 3, 6, 9, 12 hours; conditions: 5 µM
[13] = The drug is tested on Lactobacillus gasseri strain: DSM20243 for biotransformation under microaerobic condition. The drug concentrations were measured over 6 timepoints collected between 0 and 12 hours of incubation by liquid-chromatography-coupled mass spectrometry (LC–MS); parameters: dose 5 uM, timepoint 0, 1.5, 3, 6, 9, 12 hours; conditions: 5 µM
[14] = The drug is tested on Streptococcus mitis strain: DSM12643 for biotransformation under microaerobic condition. The drug concentrations were measured over 6 timepoints collected between 0 and 12 hours of incubation by liquid-chromatography-coupled mass spectrometry (LC–MS); parameters: dose 5 uM, timepoint 0, 1.5, 3, 6, 9, 12 hours; conditions: 5 µM
[15] = The drug is tested on Streptococcus salivarius strain: DSM20560 for biotransformation under microaerobic condition. The drug concentrations were measured over 6 timepoints collected between 0 and 12 hours of incubation by liquid-chromatography-coupled mass spectrometry (LC–MS); parameters: dose 5 uM, timepoint 0, 1.5, 3, 6, 9, 12 hours; conditions: 5 µM
[16] = The drug is tested on the gut metagenome community of A-02 with ENA study accession number: PRJEB31790 for biotransformation under anaerobic condition. The drug concentrations were measured over 7 timepoints collected between 0 and 12 hours of incubation by liquid-chromatography-coupled mass spectrometry (LC–MS); parameters: dose 5 uM, timepoint 0, 0.75, 1.5, 3, 6, 9, 12 hours; conditions: 5 µM
[17] = The drug is tested on the gut metagenome community of A-03 with ENA study accession number: PRJEB31790 for biotransformation under anaerobic condition. The drug concentrations were measured over 7 timepoints collected between 0 and 12 hours of incubation by liquid-chromatography-coupled mass spectrometry (LC–MS); parameters: dose 5 uM, timepoint 0, 0.75, 1.5, 3, 6, 9, 12 hours; conditions: 5 µM
[18] = The drug is tested on the gut metagenome community of P-01 with ENA study accession number: PRJEB31790 for biotransformation under anaerobic condition. The drug concentrations were measured over 7 timepoints collected between 0 and 12 hours of incubation by liquid-chromatography-coupled mass spectrometry (LC–MS); parameters: dose 5 uM, timepoint 0, 0.75, 1.5, 3, 6, 9, 12 hours; conditions: 5 µM
[19] = The drug is tested on the gut metagenome community of T-01 with ENA study accession number: PRJEB31790 for biotransformation under anaerobic condition. The drug concentrations were measured over 7 timepoints collected between 0 and 12 hours of incubation by liquid-chromatography-coupled mass spectrometry (LC–MS); parameters: dose 5 uM, timepoint 0, 0.75, 1.5, 3, 6, 9, 12 hours; conditions: 5 µM
[20] = The drug is tested on the gut metagenome community of A-03 with ENA study accession number: PRJEB31790 for biotransformation under microaerobic condition. The drug concentrations were measured over 7 timepoints collected between 0 and 12 hours of incubation by liquid-chromatography-coupled mass spectrometry (LC–MS); parameters: dose 5 uM, timepoint 0, 0.75, 1.5, 3, 6, 9, 12 hours; conditions: 5 µM
[21] = The drug is tested on the gut metagenome community of A-04 with ENA study accession number: PRJEB31790 for biotransformation under microaerobic condition. The drug concentrations were measured over 7 timepoints collected between 0 and 12 hours of incubation by liquid-chromatography-coupled mass spectrometry (LC–MS); parameters: dose 5 uM, timepoint 0, 0.75, 1.5, 3, 6, 9, 12 hours; conditions: 5 µM
[22] = The drug is tested on the gut metagenome community of P-04 with ENA study accession number: PRJEB31790 for biotransformation under microaerobic condition. The drug concentrations were measured over 7 timepoints collected between 0 and 12 hours of incubation by liquid-chromatography-coupled mass spectrometry (LC–MS); parameters: dose 5 uM, timepoint 0, 0.75, 1.5, 3, 6, 9, 12 hours; conditions: 5 µM
[23] = The drug is tested on the gut metagenome community of T-04 with ENA study accession number: PRJEB31790 for biotransformation under microaerobic condition. The drug concentrations were measured over 7 timepoints collected between 0 and 12 hours of incubation by liquid-chromatography-coupled mass spectrometry (LC–MS); parameters: dose 5 uM, timepoint 0, 0.75, 1.5, 3, 6, 9, 12 hours; conditions: 5 µM

| SMILES | Bacterial Biotransformation [1] | Bacterial Biotransformation [2] | Bacterial Biotransformation [3] | Bacterial Biotransformation [4] | Bacterial Biotransformation [5] | Bacterial Biotransformation [6] | Bacterial Biotransformation [7] | Bacterial Biotransformation [8] | Bacterial Biotransformation [9] | Bacterial Biotransformation [10] | Bacterial Biotransformation [11] | Bacterial Biotransformation [12] | Bacterial Biotransformation [13] | Bacterial Biotransformation [14] | Bacterial Biotransformation [15] | Bacterial Biotransformation [16] | Bacterial Biotransformation [17] | Bacterial Biotransformation [18] | Bacterial Biotransformation [19] | Bacterial Biotransformation [20] | further results |
| --- | --- | --- | --- | --- | --- | --- | --- | --- | --- | --- | --- | --- | --- | --- | --- | --- | --- | --- | --- | --- | --- |
| C[C@]12C=CC(=O)C=C1CC[C@@H]1[C@@H]2C(=O)C[C@@]2(C)[C@H]1CC[C@]2(O)C(=O)CO [PREDNISONE] | Compound NOT metabolized | Compound NOT metabolized | Compound NOT metabolized | Compound NOT metabolized | Compound NOT metabolized | Compound NOT metabolized | Compound NOT metabolized | Compound NOT metabolized | Compound NOT metabolized | Compound metabolized | Compound NOT metabolized | Compound NOT metabolized | Compound NOT metabolized | Compound NOT metabolized | Compound NOT metabolized | Compound metabolized | Compound metabolized | Compound metabolized | Compound metabolized | Compound metabolized | Bacterial Biotransformation [21]: Compound metabolized; Bacterial Biotransformation [22]: Compound metabolized; Bacterial Biotransformation [23]: Compound NOT metabolized |
| CNC(=C[N+](=O)[O-])NCCSCc1ccc(CN(C)C)o1 [RANITIDINE] | Compound NOT metabolized | Compound NOT metabolized | Compound NOT metabolized | Compound NOT metabolized | Compound NOT metabolized | Compound NOT metabolized | Compound NOT metabolized | Compound NOT metabolized | Compound NOT metabolized | Compound NOT metabolized | Compound NOT metabolized | Compound NOT metabolized | Compound NOT metabolized | Compound metabolized | Compound NOT metabolized | Compound metabolized | Compound metabolized | Compound metabolized | Compound NOT metabolized | Compound NOT metabolized | Bacterial Biotransformation [21]: Compound metabolized; Bacterial Biotransformation [22]: Compound NOT metabolized; Bacterial Biotransformation [23]: Compound NOT metabolized |
| CCC(C)(C)C(=O)O[C@H]1C[C@@H](C)C=C2C=C[C@H](C)[C@H](CC[C@@H]3C[C@@H](O)CC(=O)O3)[C@H]21 [SIMVASTATIN] | Compound NOT metabolized | Compound NOT metabolized | Compound NOT metabolized | Compound NOT metabolized | Compound NOT metabolized | Compound NOT metabolized | Compound metabolized | Compound NOT metabolized | Compound NOT metabolized | Compound NOT metabolized | Compound NOT metabolized | Compound NOT metabolized | Compound NOT metabolized | Compound NOT metabolized | Compound NOT metabolized | Compound metabolized | Compound NOT metabolized | Compound NOT metabolized | Compound NOT metabolized | Compound NOT metabolized | Bacterial Biotransformation [21]: Compound NOT metabolized; Bacterial Biotransformation [22]: Compound NOT metabolized; Bacterial Biotransformation [23]: Compound NOT metabolized |
